Laboratory results reported in PubChem BioAssay AID256 (DTP/NCI, 2004).
Values joined by “and” are separate entries in the source; they are usually repeats but may differ in a detail not shown here. Identical values can stand only once. Toxic doses and inconclusive results are not listed. The calls were made as follows: active = survival T/C of 150% or more; inactive = T/C below 125% in these data.

Test system: CD2F1 mice, L1210 leukemia ip, survival T/C
Assay: NCI In Vivo Anticancer Drug Screen. Data for tumor model L1210 Leukemia (intraperitoneal) in CD2F1 (CDF1) mice
Conditions: endpoint: mean survival time, higher = longer survival
In short: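 Each value reflects a quotient of treated over vehicle control outcomes in mice with a transplanted tumor.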

[1] = dose: 12.5 mg/kg/injection, schedule: Q01DX009 (ip), vehicle: saline with Tween-80
[2] = dose: 25.0 mg/kg/injection, schedule: Q01DX009 (ip), vehicle: saline with Tween-80
[3] = dose: 50.0 mg/kg/injection, schedule: Q01DX009 (ip), vehicle: saline with Tween-80
[4] = dose: 100.0 mg/kg/injection, schedule: Q01DX009 (ip), vehicle: saline with Tween-80
[5] = dose: 100.0 mg/kg/injection, schedule: Q04DX003 (ip), vehicle: saline with Tween-80
[6] = dose: 200.0 mg/kg/injection, schedule: Q01DX009 (ip), vehicle: saline with Tween-80
[7] = dose: 200.0 mg/kg/injection, schedule: Q04DX003 (ip), vehicle: saline with Tween-80
[8] = dose: 100.0 mg/kg/injection, schedule: Q04DX002 (ip), vehicle: saline with Tween-80
[9] = dose: 200.0 mg/kg/injection, schedule: Q04DX002 (ip), vehicle: saline with Tween-80
[10] = dose: 400.0 mg/kg/injection, schedule: Q04DX002 (ip), vehicle: saline with Tween-80
[11] = dose: 400.0 mg/kg/injection, schedule: Q04DX003 (ip), vehicle: saline with Tween-80
[12] = dose: 400.0 mg/kg/injection, schedule: Q01DX009 (ip), vehicle: saline with Tween-80
[13] = dose: 100.0 mg/kg/injection, schedule: Q01DX001 (ip), vehicle: saline
[14] = dose: 200.0 mg/kg/injection, schedule: Q01DX001 (ip), vehicle: saline
[15] = dose: 400.0 mg/kg/injection, schedule: Q01DX001 (ip), vehicle: saline

Measured: T/C

CNc1nc(N(C)C)nc(N(C)C)n1
inactive: dose: 6.25 mg/kg/injection, schedule: Q01DX009 (ip), vehicle: saline 97 % of control | dose: 6.25 mg/kg/injection, schedule: Q01DX009 (ip), vehicle: water 107 % of control | dose: 12.5 mg/kg/injection, schedule: Q01DX009 (ip), vehicle: saline 97 % of control | dose: 12.5 mg/kg/injection, schedule: Q01DX009 (ip), vehicle: water 104 % of control | dose: 25.0 mg/kg/injection, schedule: Q01DX009 (ip), vehicle: saline 100 % of control | dose: 25.0 mg/kg/injection, schedule: Q01DX009 (ip), vehicle: water 104 % of control | dose: 50.0 mg/kg/injection, schedule: Q01DX009 (ip), vehicle: saline 101 % of control | dose: 50.0 mg/kg/injection, schedule: Q01DX009 (ip), vehicle: water 110 % of control | dose: 100.0 mg/kg/injection, schedule: Q01DX009 (ip), vehicle: saline 111 % of control | dose: 100.0 mg/kg/injection, schedule: Q01DX009 (ip), vehicle: water 119 % of control

C1=CCOCOC1
inactive: [1] 106 % of control | [2] 96 % of control | [3] 114 % of control and 102 % of control | [4] 100 % of control and 103 % of control | [5] 100 % of control | [6] 106 % of control | [7] 118 % of control

O=c1[nH]c(N[N+](=O)[O-])nc(-c2ccccc2)c1Br
inactive: [8] 103 % of control | [9] 100 % of control | [10] 92 % of control

Cc1ccc(S(=O)(=O)/N=S(\C)c2ccc(Cl)cc2)cc1 (centres undefined)
inactive: [5] 97 % of control | [7] 108 % of control | [11] 90 % of control

c1ccc([P+](c2ccccc2)(c2ccccc2)c2ccccc2)cc1
inactive: dose: 0.63 mg/kg/injection, schedule: Q01DX009 (ip), vehicle: saline 108 % of control | dose: 1.25 mg/kg/injection, schedule: Q01DX009 (ip), vehicle: saline 111 % of control | dose: 2.5 mg/kg/injection, schedule: Q01DX009 (ip), vehicle: saline 117 % of control | dose: 5.0 mg/kg/injection, schedule: Q01DX009 (ip), vehicle: saline 122 % of control

Cc1ccc(NC(=O)COc2cc(Cl)c(Cl)cc2Cl)cc1C
inactive: [5] 102 % of control | [7] 93 % of control | [11] 96 % of control

CC[N-]c1nncs1.CC[N-]c1nncs1.CC[N-]c1nncs1.CC[N-]c1nncs1.[Cl][Rh][Cl]
inactive: dose: 3.13 mg/kg/injection, schedule: Q04DX003 (ip), vehicle: distilled water + Tween-80 104 % of control | dose: 6.25 mg/kg/injection, schedule: Q04DX003 (ip), vehicle: distilled water + Tween-80 98 % of control | dose: 12.5 mg/kg/injection, schedule: Q04DX003 (ip), vehicle: distilled water + Tween-80 96 % of control | dose: 25.0 mg/kg/injection, schedule: Q04DX003 (ip), vehicle: distilled water + Tween-80 90 % of control | dose: 50.0 mg/kg/injection, schedule: Q04DX003 (ip), vehicle: distilled water + Tween-80 98 % of control

COCC(=O)C(C(C)=O)C(c1ccc2c(c1)OCO2)C(C(C)=O)C(=O)COC (centres undefined)
inactive: [5] 96 % of control | [7] 101 % of control | [11] 96 % of control

COc1ccc(-c2nc(N)c3ncn(C4OC(CO)C(O)C4O)c3n2)cc1 (centres undefined)
inactive: dose: 12.5 mg/kg/injection, schedule: Q01DX005 (ip), vehicle: distilled water + Tween-80 98 % of control | dose: 25.0 mg/kg/injection, schedule: Q01DX005 (ip), vehicle: distilled water + Tween-80 98 % of control | dose: 50.0 mg/kg/injection, schedule: Q01DX005 (ip), vehicle: distilled water + Tween-80 96 % of control | dose: 200.0 mg/kg/injection, schedule: Q01DX005 (ip), vehicle: distilled water + Tween-80 88 % of control

CCOc1nc(OCC)nc(-c2cccn2-c2ccccc2)n1
inactive: [4] 95 % of control | [5] 106 % of control | [6] 87 % of control | [7] 100 % of control | [12] 93 % of control | [11] 98 % of control

Cc1ccc(S(=O)(=O)OCCc2ccccc2)cc1
inactive: dose: 100.0 mg/kg/injection, schedule: Q01DX001 (ip), vehicle: saline with Tween-80 97 % of control | dose: 200.0 mg/kg/injection, schedule: Q01DX001 (ip), vehicle: saline with Tween-80 97 % of control | dose: 400.0 mg/kg/injection, schedule: Q01DX001 (ip), vehicle: saline with Tween-80 94 % of control

CCN(CCS)Cc1ccccc1
inactive: [5] 98 % of control

CCCCOC(=O)C(C)OC(=O)Nc1cccc(Cl)c1 (centres undefined)
inactive: [5] 100 % of control | [7] 101 % of control | [11] 97 % of control

O=C(Nc1ccc(Cl)cc1)Oc1ccc2ccccc2c1
inactive: [13] 96 % of control | [14] 94 % of control | [15] 111 % of control

Cc1cn(C2CC(O)C(CN=[N+]=[N-])O2)c(=O)[nH]c1=O (centres undefined)
inactive: dose: 12.5 mg/kg/injection, schedule: Q01DX005 (ip), vehicle: other 93 % of control | dose: 25.0 mg/kg/injection, schedule: Q01DX005 (ip), vehicle: other 96 % of control | dose: 50.0 mg/kg/injection, schedule: Q01DX005 (ip), vehicle: other 95 % of control | dose: 100.0 mg/kg/injection, schedule: Q01DX005 (ip), vehicle: other 93 % of control | dose: 200.0 mg/kg/injection, schedule: Q01DX005 (ip), vehicle: other 93 % of control

CC(C)(C)C1CCC(O)(CSc2ccccc2)CC1 (centres undefined)
inactive: [5] 97 % of control | [7] 92 % of control | [11] 92 % of control

CN(C)N=Nc1ccccc1C(=O)NCC(F)(F)F
inactive: dose: 18.75 mg/kg/injection, schedule: Q01DX009 (ip), vehicle: Klucel (hydroxypropylcellulose) (HPC) 96 % of control and 106 % of control | dose: 37.5 mg/kg/injection, schedule: Q01DX009 (ip), vehicle: Klucel (hydroxypropylcellulose) (HPC) 93 % of control and 106 % of control | dose: 75.0 mg/kg/injection, schedule: Q01DX009 (ip), vehicle: Klucel (hydroxypropylcellulose) (HPC) 96 % of control and 100 % of control | dose: 150.0 mg/kg/injection, schedule: Q01DX009 (ip), vehicle: Klucel (hydroxypropylcellulose) (HPC) 100 % of control and 102 % of control | dose: 300.0 mg/kg/injection, schedule: Q01DX009 (ip), vehicle: Klucel (hydroxypropylcellulose) (HPC) 100 % of control and 103 % of control

BrC1CC(Br)c2c1c1c(c3c2C(Br)CC3Br)C(Br)CC1Br (centres undefined)
inactive: [1] 100 % of control and 105 % of control | [2] 102 % of control and 104 % of control | [3] 104 % of control and 105 % of control | [4] 97 % of control and 108 % of control | [6] 114 % of control and 105 % of control | [12] 104 % of control and 105 % of control

O=C1c2ccccc2C(=O)c2c(O)c3c(c(O)c21)CCCC3O (centres undefined)
inactive: dose: 0.05 mg/kg/injection, schedule: Q01DX001 (ip), vehicle: saline 101 % of control | dose: 0.1 mg/kg/injection, schedule: Q01DX001 (ip), vehicle: saline 98 % of control | dose: 0.2 mg/kg/injection, schedule: Q01DX001 (ip), vehicle: saline 101 % of control | dose: 0.4 mg/kg/injection, schedule: Q01DX001 (ip), vehicle: saline 101 % of control | dose: 0.8 mg/kg/injection, schedule: Q01DX001 (ip), vehicle: saline 101 % of control

S=C(S)NC1CCCCCCCCCCC1
inactive: [5] 102 % of control | [7] 100 % of control | [11] 93 % of control

CC(C)(CCCO)c1cccc(Cl)c1
inactive: [3] 104 % of control | [4] 101 % of control | [6] 104 % of control

COc1cccc2c1CCC1=C2CC=C2CC3(CCC21C)OCCO3 (centres undefined)
inactive: dose: 100.0 mg/kg/injection, schedule: Q04DX003 (sc), vehicle: steriod suspending solution 91 % of control | dose: 200.0 mg/kg/injection, schedule: Q04DX003 (sc), vehicle: steriod suspending solution 96 % of control | dose: 400.0 mg/kg/injection, schedule: Q04DX003 (sc), vehicle: steriod suspending solution 97 % of control

CC(C)(c1ccccn1)C(C)(C)c1ccccn1
inactive: [3] 96 % of control | [4] 104 % of control | [6] 100 % of control

C[n+]1cccc(C(=O)N/N=C/c2ccco2)c1
inactive: dose: 100.0 mg/kg/injection, schedule: Q04DX003 (ip), vehicle: saline 105 % of control | dose: 200.0 mg/kg/injection, schedule: Q04DX003 (ip), vehicle: saline 98 % of control | dose: 400.0 mg/kg/injection, schedule: Q04DX003 (ip), vehicle: saline 104 % of control

COc1ccccc1OCC1CO1 (centres undefined)
inactive: [13] 101 % of control | [14] 102 % of control | [15] 102 % of control

COc1ccc(NC(=O)Nc2cc(OC)c(Cl)cc2OC)cc1
inactive: [8] 96 % of control | [9] 89 % of control | [10] 89 % of control

CC(=O)[CH-]C(C)=O.CC(=O)[CH-]C(C)=O.CC(N)CN.[Ni+2]
inactive: dose: 50.0 mg/kg/injection, schedule: Q01DX009 (ip), vehicle: other 100 % of control
